Data published in patent US12543737B2, “Herbicidal composition and method for controlling weeds” (SUMITOMO CHEMICAL COMPANY, LIMITED, priority 2020, dated 2026).

Assays:
[1] = test system: waterhemp (Amaranthus tuberculatus=Amaranthus rudis=Amaranthus tamariscinus) having the substitution of an amino acid residue of G210Δ in PPX2; assay: Herbicidal effect, foliar spray pot test in greenhouse (Example 9); type: in vivo; conditions: spray volume 216 L/ha, 28 days after spraying, rating 0 to 100
[2] = test system: waterhemp (Amaranthus tuberculatus=Amaranthus rudis=Amaranthus tamariscinus) having the substitution of an amino acid residue of G210Δ in PPX2; assay: Herbicidal effect, foliar spray pot test in greenhouse (Example 10); type: in vivo; conditions: 216 L/ha, 28 days after spraying, rating 0 to 100
[3] = glufosinate-ammonium 350 g/ha alone

Q: How did the Herbicidal effect ([1]; compound X 0.5 g/ha alone) turn out when `CCOC(=O)COc1ncccc1Oc1cc(-n2c(=O)cc(C(F)(F)F)n(C)c2=O)c(F)cc1Cl` [compound X, epyrifenacil] was run?
A: The Herbicidal effect was 17.

Q: What about the Herbicidal effect ([1]; compound X 1 g/ha alone) of the same compound?
A: Its Herbicidal effect is 18.

Q: Which Herbicidal effect [1, 3] does the source give for `CP(=O)(O)CCC(N)C(=O)O` (centres unmarked) [glufosinate-ammonium] here?
A: Its Herbicidal effect is 37.

Q: What about the Herbicidal effect [2, 3] of the same compound?
A: Its Herbicidal effect is 37.

Q: `C#CCN1C(=O)C(F)(F)Oc2cc(F)c(-n3c(=O)n(C)c(=S)n(C)c3=O)cc21` [trifludimoxazin] was tested. Which Herbicidal effect ([2]; trifludimoxazin 0.5 g/ha alone) did it give?
A: Its Herbicidal effect is 10.
